Data on 2 compounds can be found in patent publication US12590864B2, “Wind tunnel for assessment of insecticides” (EAST CAROLINA UNIVERSITY, priority 2023, dated 2026).

What is called mortality is the share of the test organisms that died.

Data set [1] deals with Aedes albopictus. The experiment in a line: CDC bottle bioassay (AI residue). As to conditions: 30 min DT, Ae. albopictus; for mortality at the DT: 8 μg/mL residue. It counts as in vivo. The procedure: (§1) Separate mosquitoes from the same populations used in wind tunnel experiments were also used in bottle bioassays, except for Ae. albopictus, F1, Craven County, NC that were used in wind tunnel but not bottle bioassays due to low sample size. Female mosquitoes (4-5 d old) were aspirated from colony cages, transferred to 500 mL glass Wheaton bottles (N=11-20 mosquitoes in each of three to four replicate bottles), and exposed constantly to technical grade permethrin AI residue (8 μg/mL) (Chem Service, Westchester, Pennsylvania) for a 120 min period using established CDC bottle bioassay methods and mortality was monitored/recorded at 0, 15, 30, 60, and 120 min (CDC 2013, 2019; Richards et al. 2017ab, 2019). Bottle bioassay control groups were transferred to clean bottles following the same established methods (CDC 2013, 2019; Richards et al. 2017ab, 2019). Diagnostic dose and diagnostic time (DT) were determined using susceptible populations of Ae. albopictus and Cx. quinquefasciatus (data not shown).
(§2) Female mosquitoes (4-5 d old) were aspirated from a separate colony cages, transferred to 500 mL glass Wheaton bottles, and exposed to AI residue using established CDC bottle bioassay methods and mortality was monitored/recorded at 15, 30, 60, and 120 min (FIG. 8). Bottle bioassay control groups were transferred to clean bottles following established methods (CDC 2013, 2019). At the 30 min DT for permethrin, Ae. albopictus, F48, Orleans Parish, Ae. albopictus, F0, New Hanover County, and Cx. pipiens quinquefasciatus, F219, Johannesburg were classified as susceptible (100% mortality at the DT); however, Cx. pipiens/quinquefasciatus, F1, New Hanover County (69% mortality) and Cx. pipiens/quinquefasciatus, F1, Pitt County County (57% mortality) were classified as resistant. FIG. 9 is a bar graph of the mortality of types of mosquitoes in the wind tunnel during bioassay exposure to permethrin.

Data set [2] concerns Culex pipiens/quinquefasciatus. The data set can be described thus: CDC bottle bioassay (AI residue). It counts as in vivo. As to conditions: 30 min DT; for mortality at the DT: 8 μg/mL residue. The procedure: as §1, §2
The subject of data set [3] is Cx. pipiens complex. As to conditions: five field populations; cited from earlier work.
Setting [4] is: Cx. pipiens quinquefasciatus, F219, Johannesburg.
Setting [5] is: Cx. pipiens/quinquefasciatus, F1, New Hanover County.
Setting [6] is: Cx. pipiens/quinquefasciatus, F1, Pitt County.

Each structure is given as a SMILES string.

Turning to `CC1(C)C(C=C(Cl)Cl)C1C(=O)OCc1cccc(Oc2ccccc2)c1` (centres unmarked) [permethrin], the “mortality at the DT” value in data set [1] (F0, New Hanover County) worked out at 100%; in data set [1] (F48, Orleans Parish) it was 100%; in data set [2] (setting [4]), 100%; in data set [2] (setting [5]) it was 69%; in data set [2] (setting [6]), 57%. Besides, the resistance classification entry in data set [1] (F0, New Hanover County) is given as “susceptible”; in data set [1] (F48, Orleans Parish) it was “susceptible”; in data set [2] (setting [4]), “susceptible”; in data set [2] (setting [5]), “resistant”; in data set [2] (setting [6]), “resistant”.
Consider `CC(C)=CC1C(C(=O)OCc2cccc(Oc3ccccc3)c2)C1(C)C` (stereo not drawn) [Sumethrin®, d-phenothrin], for which the resistance classification result in data set [3] is “resistant”.
